Reference: patent US8334255B2, “Peptide and treatment for HIV-1 infection” (Thomas Jefferson University, priority 2006, dated 2012)
Primed or numbered codes have the meaning given here. Ends that are not written are not given here. FITC′ = not defined here

Tests used:
H9 and MT-2 cells = assay: Cellular uptake and intracellular localization of FITC-tagged peptide by fluorescence microscopy; assay type: cell-based
Method: The peptide of amino acid sequence SEQ ID NO:2 was synthesized with a C-terminal fluoroscein isothiocyanate (FTIC) tag. The FITC tag enables fluorescence microscopy of living cells in order to evaluate cellular uptake and intracellular localization of the peptide. Cultures of H9 and MT-2 cells were grown in media as recommended by the American Tissue Culture Collection (ATCC) and each culture was treated once in culture with of the FTIC-tagged peptide of the amino acid sequence SEQ ID NO:2. The cells were then photographed in the culture dish with an inverted fluorescence microscopy at various time points. […] The intracellular distribution was both punctate and diffuse in the cytoplasm but little or no FTIC-tagged peptide was observed within the nuclei of cells. This distribution was sustained for 24-48 hours and diminished by over 50% by 72 hours post-treatment.
To highlight the position of the nucleus, H9 and MT-2 cells treated with the FTIC-tagged peptide of the amino acid sequence SEQ ID NO:2 as described above, fixed with 2% paraformaldehyde, permeabilized with 0.4% Triton X-100 and stained with the DNA selective stain 4′,6-diamidino-2-phenylindole (DAPI).

[1] = Physicochemical properties of the peptide (isoelectric point, solubility)
HIV-1IIIB virus = assay: Low multiplicity of infection acute infection assay in MT-2 cells, reverse transcriptase assay; conditions: for delay of the onset of virus production: MT-2 cells, RT assay
HIV-1NL4-3 Viruses [2] = assay: Viral infectivity assay in human T lymphoblastoid H9 cell line, p24 antigen ELISA; assay type: cell-based; conditions: H9 cells, MOI 0.01, peptide 50 μM, compared to untreated cells or control peptide
Method: A viral infectivity assay was performed in the presence or absence of the peptides of amino acid sequence SEQ ID NO:2 and SEQ ID NO:36, and the control peptide of amino acid sequence SEQ ID NO:35 using HIV-1NL4-3 viruses in H9 cells and assaying HIV-1 p24 antigen. The procedure was performed essentially as described by B. Yang, et al., J. Bio. Chem., 2003; 278(8), 6596-602, which describes the method as follows. H9 cells (1×10^6) are mixed with HIV-1NL4-3 viruses at a multiplicity of infection of 0.01. After incubation at 37° C. for 5 hours, the excess viruses were removed, and the cells are cultured in the presence of RPMI 1640 medium plus […] fetal bovine serum with or without the peptides at a concentration of 50 μM. Every 3-4 days the supernatants are harvested and refreshed. The effects of the peptides on viral infectivity are monitored by detecting the HIV-1 p24 antigen level in the cell culture supernatant via ELISA.

HIV-1NL4-3 Viruses [3] = assay: Viral infectivity assay in peripheral blood mononuclear cells, p24 Gag ELISA; assay type: cell-based; conditions: PBMCs infected with HIV-1NL4-3, MOI 0.1; p24 antigen level by ELISA
Method: Various truncated analogues of the peptide of amino acid sequence SEQ ID NO:36 were prepared to determine the minimal peptide necessary to inhibit viral infectivity. The compounds were tested in a viral infectivity assay in which PBMCs were infected with HIV-1NLA-3 viruses (MOI: 0.1). The amounts of virus produced were monitored by detecting the HIV-1 p24 antigen. level in the cell culture using p24 Gag ELISA (Zeptometrics).

[4] = living H9 and MT-2 cells, single treatment

## FTIC-tagged peptide of the amino acid sequence SEQ ID NO:2: peptide of amino acid sequence SEQ ID NO:2 synthesized with a C-terminal fluoroscein isothiocyanate (FTIC) tag (YGRKKRRQRRRGQGGSPLPRSV-{FITC′})
H9 and MT-2 cells; H9 and MT-2 cells, 24 h after a single treatment
  intracellular localization (fixed cells, DAPI nuclear stain): localized in the cytoplasm but was not present in the nucleus
H9 and MT-2 cells; by 72 hours post-treatment
  diminution of intracellular peptide distribution: over 50%
H9 and MT-2 cells; [4]
  time after which fluorescence within cells was detected: 5 ninutes
  time for which the intracellular distribution was sustained: 24 to 48 h
  time until intracellular localization was apparent in all cells: ≤ 30 min
H9 and MT-2 cells; living H9 and MT-2 cells, distribution punctate and diffuse in the cytoplasm
  peptide observed within the nuclei of cells: little or no

## YGRKKRRQRRRGQGGSPLPRSV [SEQ ID NO:2]
[1]
  isoelectric point (pI): 12.39
  solubility: ~1000 µg/mL

## YGRKKRRQRRRGDLGEQHFKGLVL [SEQ ID NO:35]
HIV-1IIIB virus; MOI 0.003, peptide 50 μM
  effect on virus production (in words): somewhat enhance virus production
HIV-1IIIB virus; MOI 0.01, peptide 50 μM
  effect on virus production (in words): did not inhibit virus production
HIV-1IIIB virus; MOI 0.03, peptide 50 μM
  effect on virus production (in words): did not inhibit virus production
HIV-1IIIB virus; MOI 0.1, peptide 50 μM
  effect on virus production (in words): did not inhibit virus production

## YGRKKRRQRRRGSNQGGSPLPRSV [SEQ ID NO:36]
HIV-1NL4-3 Viruses [2]
  effect on viral replication (HIV-1 p24 antigen in supernatant): inhibited viral replication
HIV-1IIIB virus; MOI 0.003, peptide 50 μM
  effect on virus production (in words): did not appear to have any effect upon virus production
HIV-1IIIB virus; MOI 0.01, peptide 50 μM
  delay of the onset of virus production: 3 to 4 days
HIV-1IIIB virus; MOI 0.03, peptide 50 μM
  delay of the onset of virus production: 2 to 3 days
HIV-1IIIB virus; MOI 0.1, peptide 50 μM
  delay of the onset of virus production: 4 to 5 days

## YGRKKRRQRRRGSNQGGSPLPRS [SEQ ID NO: 75]
HIV-1NL4-3 Viruses [3]
  Activity (inhibiting HIV-1NL4-3 viruses in viral infectivity assay): Inactive

## YGRKKRRQRRRGGGSPLPRSV [SEQ ID NO: 74]
HIV-1NL4-3 Viruses [3]
  Activity (inhibiting HIV-1NL4-3 viruses in viral infectivity assay): Inactive
